Laboratory results taken from patent publication US7977041B2, “Methods and kits for testing the efficacy of therapeutic compounds and other therapies in a three-dimensional matrix with respect to tumorous cells and tissue” (priority 2006, dated 2011).

System: renal cell carcinoma tissue, Patient Sample GS-640 (kidney tissue)
Assay: tumor tissue fragments in three-dimensional gel matrix: cell migration/invasion away from the fragment under chemotherapy
Format: cell-based, human
Conditions: 5 days treatment; for number of invading cells: compared with control sample at Day 5; for response of tumor sample to the drug (behavior of cells growing and invading away from the solid tumor fragment): patient renal cell carcinoma fragments in gel matrix, 37 degree Celsius, 5% CO2, compared with untreated control
From the text: FIGS. 1-8 are photographic and photomicrographic images which show, by way of example, use of the means and methods of the present invention with respect to a tissue sample removed from a patient. With respect to FIGS. 1-8, Patient Sample GS-640, comprising kidney tissue, was removed from the patient by a surgeon during surgery.
Tissue analysis and screening in accordance with the invention were requested by the surgeon, and proper consent was obtained from the patient prior to surgical removal of a sample quantity of tissue from the RHS Kidney. The patient was diagnosed with renal cell carcinoma. A tissue sample of approximately 1 gram in quantity was removed from the patient during surgery, and was placed into a 25 ml sample jar, and immersed in sterile saline. The tumor tissue was kept at 4 degrees centigrade until processed for the screening of therapeutic compounds in accordance with the means and methods of the invention. All procedures were performed under sterile conditions in a bio-safety laminar flow hood.
FIG. 1 is a photographic image showing the mechanical division of the sample into portions to be tested. The sample has been prepared by dissecting away any non viable tissue and blood prior to mincing into 1-2 mm pieces using sterile disposable scalpels.
FIG. 2 is a photographic image showing tumor sample portions which have been placed into each well of a 48 well plate, and been submersed in a gel matrix mixture according to the invention. After insertion of the portions, the mixture was allowed to form into a gel at room temperature for approximately 30 minutes. Once the gel formed around the fully immersed tumor fragments, nutrient rich media was added as a liquid overlay that permeated the entire gel and tumor fragment.
Each different chemotherapy and or dose of chemotherapy was added to a set of 6 wells out of the 48-well plate. A total of 7 different chemotherapies were assessed in this plate. One set of six wells were not treated with drug and thus acted as ‘control conditions’ for tumor fragment growth and invasion. Each of the eight vertical lanes containing six separate wells was marked with a symbol for each chemotherapy/dose used and noted correspondingly on data collection sheets. […] The plates were then placed in a conventional 37 degree Celsius incubator at 5% CO2.
This image is thus representative of all wells at Day 0 with or without chemotherapeutics. Images were made with a 400× magnification phase contrast micrograph using ZEISS camera specs.
FIG. 4 is a photomicrographic image which showing a patient control sample (no treatment) after 3 days incubation @37° C. and 5% CO2. Noteworthy is the migration of cells away from the solid tumor mass in a halo around the tumour fragment.
Noteworthy is the halo of cells and increased cell density as compared with the results shown at Day 3 of the test. The lines on the images have been drawn to show the distance measurements within which approximately 95% of the migrating cells have migrated away from the margins of the tissue sample.

Structure (SMILES)	number of invading cells	response of tumor sample to the drug (behavior of cells growing and invading away from the solid tumor fragment)	migratory distance of cells
N.N.[Cl][Pt][Cl] [Cisplatin]	identical in appearance and cell numbers to the control sample	failed chemotherapy	
CC(=O)O[C@@]12CO[C@@H]1C[C@H](O)[C@@]1(C)C(=O)[C@H](O)C3=C(C)[C@@H](OC(=O)[C@H](O)[C@@H](NC(=O)OC(C)(C)C)c4ccccc4)C[C@@](O)([C@@H](OC(=O)c4ccccc4)[C@H]21)C3(C)C [Docetaxol, Docetaxel]	fewer number of invading cells than the control	moderate response	longer migratory distance than treatment with Taxol
CC(=O)O[C@H]1C(=O)[C@@]2(C)[C@H]([C@H](OC(=O)c3ccccc3)[C@]3(O)C[C@H](OC(=O)[C@H](O)[C@@H](NC(=O)c4ccccc4)c4ccccc4)C(C)=C1C3(C)C)[C@]1(OC(C)=O)CO[C@@H]1C[C@@H]2O [Taxol, Paclitaxel]		a drop in both the distance and the number of cells that have grown and invaded away from the solid tumor fragment	
